According to patent US9829495B2, “Method for differentially diagnosing ACTH-dependent Cushing's syndrome” (Corcept Therapeutics, Inc., priority 2015, dated 2017):

Tested on: ACTH from the pituitary gland
Test: ACTH stimulation after oral mifepristone in persons with normal HPA function
Format: in vivo, human
Settings: oral dose of 300-1500 mg; persons having normal hypothalamic-pituitary-adrenal axis (HPA) function
Experimental: GRA is administered at a dosage that is sufficient to increase ACTH in the pituitary gland by at least two fold in persons with normal HPA functions. In one embodiment, the GRA is mifepristone. In one embodiment, mifepristone is administered orally to the patient. […] In one embodiment, the GRA is administered at 11 pm the night before IPSS. Following the diagnosis of ACTH dependent Cushing's syndrome, they then undergo IPSS to identify the source of abnormal ACTH secretion, i.e., whether it is pituitary or ectopic. […] Another 0.018 microcatherter is inserted into the peripheral jugular vein. A 5,000 unit bolus of heparin is administered to the veins to prevent venous sinus thrombosis.

CC#C[C@]1(O)CC[C@H]2[C@@H]3CCC4=CC(=O)CCC4=C3[C@@H](c3ccc(N(C)C)cc3)C[C@@]21C [mifepristone, 17-β-hydrox-11-β-(4-dimethyl-aminophenyl)17-α-(1-propynyl)estra-4,9-dien-3-one]
increase ACTH from the pituitary gland: at least two-fold
